One assay deals with HL60. Description: NCI panel growth inhibition, HL60. It is filed as cell-based. The conditions noted are these: Homo sapiens, HL-60, 10 micromolar. An excerpt:
(§1) A sample of the variety of human cancer cell lines, whose growth was inhibited more than 50% by 10 micromolar concentration of the prototype drug 6a, is shown in Table 2.
(§2) The description of the human cancer cell lines used is as follows: ACHN, human renal adenocarcinoma; HL-60(TB), human acute myeloid leukemia; HCT-116, human colon carcinoma; HOP-62, human adenocarcinoma (non-small cell lung cancer); M14, human metastatic malignant melanoma; MCF7, human mammary adenocarcinoma; OVCAR-8, human ovarian carcinoma.

Assay [1] deals with National Cancer Institute's panel of human cell lines. In words: National Cancer Institute's panel of human cell lines in culture. The assay is classed as cell-based. The conditions noted are these: 10 micromolar, cell lines of Table 2, read-out: growth inhibition of the sampled human cancer cell lines.
Excerpt: as §1

The next assay relates to MCF-7. Description: NCI panel growth inhibition, MCF-7. It is filed as cell-based. The settings on record: Homo sapiens, MCF7, 10 micromolar.
Excerpt: as §1, §2

In the next assay the test system is NCI-H522. In words: NCI panel growth inhibition, NCI-H522. The assay is classed as cell-based. The conditions noted are these: Homo sapiens, 10 micromolar.
Excerpt: as §1, §2

The test system of assay [2] is human colon cancer HCT-116 cells. In words: HCT-116 xenograft test for in vivo oral anticancer activity. The arrangement: species or system mice. The conditions noted are these: athymic nude mice, daily oral dosing, 25 mg/kg. An excerpt: This example provides a description of HCT-116 xenograft test for in vivo oral anticancer activity of 6a.
Forty athymic nude mice (NCr nude, female, 5-6 weeks old, 20-25 g, Taconic) were inoculated with 6×10^6 exponentially growing human colon cancer HCT-116 cells, 1:1 ratio with Matrigel in 100 microliter into the right flank. Over the following 10 days, tumors reached a volume of 70 to 130 mm^3. Tumor volume were caliper-measured and calculated as length×width×width/2. Thirty mice were randomly allocated into three groups: (1) vehicle control group, (2) 6a test group, and (3) capecitabine (Cayman Chemical Co.) positive control group, with 10 mice into each group. Dosing solutions of each were prepared and kept refrigerated during the course of the test. Each mouse was dosed daily by oral administration.
After starting the dosing, body weights and tumor size measurements were recorded twice weekly to the end of the test.

The subject of another assay is M14. In words: NCI panel growth inhibition, M14. The assay is classed as cell-based. The conditions noted are these: Homo sapiens, 10 micromolar.
Excerpt: as §1, §2

In another assay the test system is HCT-116. Description: NCI panel growth inhibition, HCT-116. The settings on record: Homo sapiens, 10 micromolar. The assay is classed as cell-based.
Excerpt: as §1, §2

The subject of assay [3] is KG-1 human acute myeloid leukemia cells. In words: Cell viability assay of Promega, KG-1 cells. The assay is classed as cell-based. An excerpt: Using the cell viability assay of Promega, the following IC50-values were obtained against KG-1 human acute myeloid leukemia cells (Table 3). The nucleoside carbamate capecitabine (Xeloda®) is included for comparison).
In the next assay the test system is OVCAR-8. Description: NCI panel growth inhibition, OVCAR-8. The assay is classed as cell-based. The settings on record: Homo sapiens, 10 micromolar.
Excerpt: as §1, §2

A further assay has as its system ACHN. In words: NCI panel growth inhibition, ACHN. It is filed as cell-based. The conditions noted are these: Homo sapiens, 10 micromolar.
Excerpt: as §1, §2

One may read the inhibition as the drop in the measured response relative to a control, in per cent. Usually IC50 stands for the concentration that gives 50% inhibition. Lower therefore signals greater potency in that assay. As for `CCCCCOC(=O)Nc1nc(=O)n([C@@H]2O[C@H](CO)[C@@H](O)C2(F)F)cc1F` [Compound 6a, N^4-Pentyloxycarbonyl-2′-deoxy-2′,2′,5-trifluorocytidine], the inhibition at 10 µM was 75.8% in the assay with HL60; greater than 50% in assay [1]; 51.9% with MCF-7; 61.1% in the assay on NCI-H522; 85.9% in the assay on M14; 63.5% in the assay on HCT-116. For the same compound, the inhibition at 10 µM amounted to 71.6% with OVCAR-8 and 86.4% with ACHN. Further, the “in vivo oral anticancer activity (growth of human colon cancer in mice)” value in [2] is given as “orally active in vivo”. This compound displayed an IC50 in assay [3] (Homo sapiens, cell viability) of 129 ± 10.7 nM. Moreover, the “Ratio (IC50-value of capecitabine/IC50-value of test compound)” value in assay [3] (fold potency versus capecitabine) turned out to be 69.
